Reference: ChEMBL document CHEMBL4371083, “Synthesis, biological evaluation and 3D-QSAR studies of 1,2,4-triazole-5-substituted carboxylic acid bioisosteres as uric acid transporter 1 (URAT1) inhibitors for the treatment of hyperuricemia associated with gout” (Bioorg Med Chem Lett, 2019)

target: T1, Solute carrier family 22 member 12 (Homo sapiens, UniProt Q96S37); assay: Inhibition of human URAT1 expressed in HEK293 cells assessed as reduction in [8-14C]uric acid uptake; format: cell-based
T1 sequence (Q96S37 whole entry): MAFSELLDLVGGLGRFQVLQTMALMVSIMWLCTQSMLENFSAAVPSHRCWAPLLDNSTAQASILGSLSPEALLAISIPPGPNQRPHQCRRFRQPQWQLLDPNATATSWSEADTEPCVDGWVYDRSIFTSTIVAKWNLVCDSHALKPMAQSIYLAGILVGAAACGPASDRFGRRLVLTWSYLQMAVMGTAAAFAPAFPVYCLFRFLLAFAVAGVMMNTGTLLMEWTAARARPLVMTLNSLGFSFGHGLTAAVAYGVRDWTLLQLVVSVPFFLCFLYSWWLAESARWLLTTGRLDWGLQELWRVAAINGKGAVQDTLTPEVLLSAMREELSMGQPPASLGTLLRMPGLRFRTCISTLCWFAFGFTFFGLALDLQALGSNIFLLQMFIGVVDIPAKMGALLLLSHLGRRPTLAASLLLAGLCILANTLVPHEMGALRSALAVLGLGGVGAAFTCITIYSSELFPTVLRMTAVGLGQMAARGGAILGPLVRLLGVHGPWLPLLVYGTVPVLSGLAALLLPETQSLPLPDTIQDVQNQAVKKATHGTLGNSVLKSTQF

| SMILES | IC50 |
| --- | --- |
| O=C(CSc1nnc(Br)n1Cc1ccc(Br)c2ccccc12)NO | 0.64 µM |
| O=S(=O)(CSc1nnc(Br)n1Cc1ccc(Br)c2ccccc12)Nc1ccc(Br)nc1 | 2.2 µM |
| O=S(=O)(O)CSc1nnc(Br)n1Cc1ccc(Br)c2ccccc12 | 14.4 µM |
| O=S(=O)(CSc1nnc(Br)n1Cc1ccc(Br)c2ccccc12)Nc1cccnc1 | 0.032 µM |
| O=S(=O)(CSc1nnc(Br)n1Cc1ccc(Br)c2ccccc12)Nc1ccccc1 | 15.8 µM |
| O=S(=O)(CSc1nnc(Br)n1Cc1ccc(Br)c2ccccc12)Nc1cnccc1I | 10.6 µM |
| Oc1c(Br)cc(CSc2nnc(Br)n2Cc2ccc(Br)c3ccccc23)cc1Br | 119 µM |
| O=S(=O)(CSc1nnc(Br)n1Cc1ccc(Br)c2ccccc12)Nc1ccc(Cl)nc1 | 1.94 µM |
| O=S(=O)(CSc1nnc(Br)n1Cc1ccc(Br)c2ccccc12)Nc1ccc(C(F)(F)F)nc1 | 10.2 µM |
| O=S(=O)(CSc1nnc(Br)n1Cc1ccc(Br)c2ccccc12)Nc1cncc(C(F)(F)F)c1 | 6.38 µM |
| O=S(=O)(CSc1nnc(Br)n1Cc1ccc(Br)c2ccccc12)Nc1cccnc1Cl | 5.1 µM |
| NS(=O)(=O)CSc1nnc(Br)n1Cc1ccc(Br)c2ccccc12 | 365 µM |
| O=S(=O)(CSc1nnc(Br)n1Cc1ccc(Br)c2ccccc12)Nc1ccc(Cl)nc1Cl | 1.66 µM |
| COc1ncccc1NS(=O)(=O)CSc1nnc(Br)n1Cc1ccc(Br)c2ccccc12 | 4.05 µM |
| O=S(=O)(CSc1nnc(Br)n1Cc1ccc(Br)c2ccccc12)Nc1ccc(F)nc1 | 1.55 µM |
| O=S(=O)(CSc1nnc(Br)n1Cc1ccc(Br)c2ccccc12)Nc1ccc(Br)nc1Br | 5.41 µM |
| O=S(=O)(CSc1nnc(Br)n1Cc1ccc(Br)c2ccccc12)Nc1cc(Cl)cnc1Cl | 2.79 µM |
| O=S(=O)(CSc1nnc(Br)n1Cc1ccc(Br)c2ccccc12)Nc1cccnc1Br | 0.28 µM |
| Brc1ccc(Cn2c(Br)nnc2SCc2nnn[nH]2)c2ccccc12 | 3.24 µM |
